We go through nine compounds from patent US4797395A, “1-Acyloxyalkyl esters of cephalosporin” (Takeda Chemical Industries, Ltd., priority 1983, dated 1989).

For data set [1] the following is noted: mouse, in vivo. Here is the method:
The compounds of Examples (compound Nos. 1, 2, 3, 4, 5, 6, 7 and 8) and, as a control compound, the pivaloyloxymethyl ester of compound [II] (hereinafter referred to briefly as compound A) are administered orally to mice, each compound to one animal, in the dose of 100 mg/kg in terms of the non-ester, i.e. compound [II]. At 0.25, 0.5, 1.0 and 2.0 hours after administration, the concentration of compound [II] in the plasma of each mouse is measured by the cup method using Proteus mirabilis Eb 313 as the test organism and the area under plasma concentration-time curve from zero to 2 hours (AUC) is calculated. As a control, compound [II] is subcutaneously administered to a mouse and the AUC value is calculated as above. The bioavailability is calculated by means of the following equation. [formula]

The test system of another data set is Staphylococcus aureus. The settings on record: gram-positive; Antimicrobial Agent and Chemotherapy 14, 557-568 (1978); cited from earlier work.
A further data set concerns Klebsiella pneumoniae. The conditions noted are these: gram-negative; Antimicrobial Agent and Chemotherapy 14, 557-568 (1978); cited from earlier work.
The subject of a further data set is Proteus vulgaris. The conditions noted are these: gram-negative; Antimicrobial Agent and Chemotherapy 14, 557-568 (1978); cited from earlier work.
For a further data set, the system named is Proteus mirabilis. The conditions noted are these: gram-negative; Antimicrobial Agent and Chemotherapy 14, 557-568 (1978); cited from earlier work.
The next data set deals with Proteus morganii. The conditions noted are these: gram-negative; Antimicrobial Agent and Chemotherapy 14, 557-568 (1978); cited from earlier work.
Another data set concerns Escherichia coli. The conditions noted are these: gram-negative; Antimicrobial Agent and Chemotherapy 14, 557-568 (1978); cited from earlier work.

A word on the AUC: it is concentration integrated over time. Higher therefore signals more exposure.

Counter-ions that a name gives are not always drawn. Like-named read-outs stand apart in the source and are kept apart here.

Consider `CC(C)C(OC(=O)C1=C(CSc2nnnn2CCN(C)C)CS[C@@H]2[C@H](NC(=O)Cc3csc(N)n3)C(=O)N12)OC(=O)C1CCCCC1.Cl.Cl` (stereo partly drawn) [Compound No. 1, 1-(Cyclohexylcarbonyloxy)-2-methylpropyl 7β-[2-(2-aminothiazol-4-yl)acetamido]-3-[[[1-(2-dimethylaminoethyl) -1H-tetrazol-5-yl]thio]methyl]ceph-3-em-4-carboxylate dihydrochloride], for which, in data set [1] (100 mg/kg, 120 min), the Bioavailability is recorded as 94.4%. Moreover, in data set [1] (po, 100 mg/kg, 15 min), the “Plasma level of non-ester (compound [II]), 0.25 hr” value (“Plasma level of non-ester … 0.25 hr” for short) amounted to 66300 ng/mL. In addition, the “Plasma level of non-ester (compound [II]), 0.5 hr” value (from here on “Plasma level of non-ester … 0.5 hr”) in data set [1] (po, 100 mg/kg, 30 min) is 34500 ng/mL. In addition, the “Plasma level of non-ester (compound [II]), 1.0 hr” value (“Plasma level of non-ester … 1.0 hr” for short) in data set [1] (po, 100 mg/kg, 60 min) was 8900 ng/mL. Moreover, in data set [1] (po, 100 mg/kg, 120 min), the area under the curve (AUC) turned out to be 36600 ng·h/mL and the “Plasma level of non-ester (compound [II]), 2.0 hr” value (“Plasma level of non-ester … 2.0 hr” for short) amounted to 900 ng/mL.
As for `CCCCC(=O)OC(OC(=O)C1=C(CSc2nnnn2CCN(C)C)CS[C@@H]2[C@H](NC(=O)Cc3csc(N)n3)C(=O)N12)C1CCCCC1.Cl.Cl` (stereo partly drawn) [Compound No. 7, 1-n-Pentanoyloxy-1-cyclohexylmethyl 7β-[2-(2-aminothiazol-4-yl)acetamido]-3-[[[1-(2-dimethylaminoethyl)-1H-tetrazol-5-yl]thio]methyl]ceph-3-em-4-carboxylate dihydrochloride], the Bioavailability in data set [1] (100 mg/kg, 120 min) is 88.9%. Also, the “Plasma level of non-ester … 0.25 hr” value in data set [1] (po, 100 mg/kg, 15 min) turned out to be 36400 ng/mL. Moreover, the “Plasma level of non-ester … 0.5 hr” value in data set [1] (po, 100 mg/kg, 30 min) turned out to be 30000 ng/mL. In data set [1] (po, 100 mg/kg, 60 min), the “Plasma level of non-ester … 1.0 hr” value turned out to be 17000 ng/mL. In addition, in data set [1] (po, 100 mg/kg, 120 min), the AUC was found to be 34500 ng·h/mL and the “Plasma level of non-ester … 2.0 hr” value was 3200 ng/mL.
Regarding `CCCC(=O)OC(OC(=O)C1=C(CSc2nnnn2CCN(C)C)CS[C@@H]2[C@H](NC(=O)Cc3csc(N)n3)C(=O)N12)C1CCCCC1` (stereo partly drawn) [Compound No. 8, 1-n-Butyryloxy-1-cyclohexylmethyl 7β-[2-(2-aminothiazol-4-yl)acetamido]-3-[[[1-(2-dimethylaminoethyl) -1H-tetrazol-5-yl]thio]methyl]ceph-3-em-4-carboxylate dihydrochloride], the Bioavailability in data set [1] (100 mg/kg, 120 min) was found to be 103.5%. For the same compound, the “Plasma level of non-ester … 0.25 hr” value in data set [1] (po, 100 mg/kg, 15 min) is 50000 ng/mL. In addition, the “Plasma level of non-ester … 0.5 hr” value in data set [1] (po, 100 mg/kg, 30 min) turned out to be 39600 ng/mL. Further, the “Plasma level of non-ester … 1.0 hr” value in data set [1] (po, 100 mg/kg, 60 min) is 15600 ng/mL. In addition, in data set [1] (po, 100 mg/kg, 120 min), the AUC worked out at 40200 ng·h/mL and the “Plasma level of non-ester … 2.0 hr” value turned out to be 2330 ng/mL.
For `CN(C)CCn1nnnc1SCC1=C(C(=O)OC(OC(=O)C2CCCCC2)C2CCCCC2)N2C(=O)[C@@H](NC(=O)Cc3csc(N)n3)[C@H]2SC1.Cl.Cl` (stereo partly drawn) [compound 2, 1-(Cyclohexylcarbonyloxy)-1-cyclohexylmethyl 7β-[2-(2-aminothiazol-4-yl)acetamido]-3-[[[1-(2-dimethylaminoethyl) -1H-tetrazol-5-yl]thio]methyl]ceph-3-em-4-carboxylate dihydrochloride], the Bioavailability in data set [1] (100 mg/kg, 120 min) stood at 107.8%. In addition, the “Plasma level of non-ester … 0.25 hr” value in data set [1] (po, 100 mg/kg, 15 min) turned out to be 46100 ng/mL. In addition, in data set [1] (po, 100 mg/kg, 30 min), the “Plasma level of non-ester … 0.5 hr” value worked out at 32200 ng/mL. Besides, the “Plasma level of non-ester … 1.0 hr” value in data set [1] (po, 100 mg/kg, 60 min) was 21200 ng/mL. For the same compound, in data set [1] (po, 100 mg/kg, 120 min), the area under the curve (AUC) was found to be 41900 ng·h/mL and the “Plasma level of non-ester … 2.0 hr” value came to 4700 ng/mL.
In the case of `CCC(OC(=O)C1=C(CSc2nnnn2CCN(C)C)CS[C@@H]2[C@H](NC(=O)Cc3csc(N)n3)C(=O)N12)OC(=O)C1CCCCC1.Cl.Cl` (stereo partly drawn) [compound 3, 1-(Cyclohexylcarbonyloxy)propyl 7β-[2-(2-amino-thiazol-4-yl)acetamido]-3-[[[1-(2-dimethylaminoethyl) -1H-tetrazol-5-yl]thio]methyl]ceph-3-em-4-carboxylate dihydrochloride], the Bioavailability in data set [1] (100 mg/kg, 120 min) is 86.4%. In data set [1] (po, 100 mg/kg, 15 min), the “Plasma level of non-ester … 0.25 hr” value is 59500 ng/mL. The “Plasma level of non-ester … 0.5 hr” value in data set [1] (po, 100 mg/kg, 30 min) came out at 25000 ng/mL. Further, the “Plasma level of non-ester … 1.0 hr” value in data set [1] (po, 100 mg/kg, 60 min) is 11700 ng/mL. In addition, in data set [1] (po, 100 mg/kg, 120 min), the exposure (AUC) worked out at 33500 ng·h/mL and the “Plasma level of non-ester … 2.0 hr” value was 1000 ng/mL.
In data set [1] (100 mg/kg, 120 min), `CCCC(OC(=O)C1=C(CSc2nnnn2CCN(C)C)CS[C@@H]2[C@H](NC(=O)Cc3csc(N)n3)C(=O)N12)OC(=O)C1CCCCC1.Cl.Cl` (stereo partly drawn) [compound 4, 1-(Cyclohexylcarbonyloxy)butyl 7β-[2-(2-aminothiazol-4-yl)acetamido]-3-[[[1-(2-dimethylaminoethyl) -1H-tetrazol-5-yl]thio]methyl]ceph-3-em-4-carboxylate dihydrochloride] registered a Bioavailability of 98.8%. The “Plasma level of non-ester … 0.25 hr” value in data set [1] (po, 100 mg/kg, 15 min) was determined as 47000 ng/mL. Moreover, the “Plasma level of non-ester … 0.5 hr” value in data set [1] (po, 100 mg/kg, 30 min) was 38400 ng/mL. The “Plasma level of non-ester … 1.0 hr” value in data set [1] (po, 100 mg/kg, 60 min) was 14400 ng/mL. In data set [1] (po, 100 mg/kg, 120 min), the AUC amounted to 38400 ng·h/mL and the “Plasma level of non-ester … 2.0 hr” value was found to be 2800 ng/mL.
In turn, `CC(C)C(OC(=O)CC1CCCCC1)OC(=O)C1=C(CSc2nnnn2CCN(C)C)CS[C@@H]2[C@H](NC(=O)Cc3csc(N)n3)C(=O)N12.Cl.Cl` (stereo partly drawn) [compound 5, 1-(Cyclohexylacetoxy)-2-methylpropyl 7β-[2-(2-aminothiazol-4-yl)acetamido]-3-[[[1-(2-dimethylaminoethyl) 1H-tetrazol-5-yl]thio]methyl]ceph-3-em-4-carboxylate dihydrochloride] had a Bioavailability in data set [1] (100 mg/kg, 120 min) of 88.8%. The “Plasma level of non-ester … 0.25 hr” value in data set [1] (po, 100 mg/kg, 15 min) was found to be 29200 ng/mL. Also, in data set [1] (po, 100 mg/kg, 30 min), the “Plasma level of non-ester … 0.5 hr” value was found to be 46700 ng/mL. In addition, in data set [1] (po, 100 mg/kg, 60 min), the “Plasma level of non-ester … 1.0 hr” value came out at 11100 ng/mL. In data set [1] (po, 100 mg/kg, 120 min), the AUC is 34500 ng·h/mL and the “Plasma level of non-ester … 2.0 hr” value is 2600 ng/mL.
`CN(C)CCn1nnnc1SCC1=C(C(=O)OCOC(=O)C(C)(C)C)N2C(=O)[C@@H](NC(=O)Cc3csc(N)n3)[C@H]2SC1` [compound A, reference compound]: the Bioavailability in data set [1] (100 mg/kg, 120 min) amounted to 41.8%. Also, in data set [1] (po, 100 mg/kg, 15 min), the “Plasma level of non-ester … 0.25 hr” value was 21000 ng/mL. The “Plasma level of non-ester … 0.5 hr” value in data set [1] (po, 100 mg/kg, 30 min) was 16200 ng/mL. Besides, the “Plasma level of non-ester … 1.0 hr” value in data set [1] (po, 100 mg/kg, 60 min) turned out to be 6100 ng/mL. In data set [1] (po, 100 mg/kg, 120 min), the “Plasma level of non-ester … 2.0 hr” value stood at 600 ng/mL.
As for `CN(C)CCn1nnnc1SCC1=C(C(=O)O)N2C(=O)[C@@H](NC(=O)Cc3csc(N)n3)[C@H]2SC1` [compound [II]], the antibacterial activity result with Staphylococcus aureus, with Klebsiella pneumoniae, in the data set with Proteus vulgaris, in the data set with Proteus mirabilis, with Proteus morganii and in the data set with Escherichia coli was “potent antibacterial activity” each time. Besides, the “Plasma level of non-ester … 0.25 hr” value in data set [1] (sc, 0.25 h) is 69200 ng/mL. Moreover, the “Plasma level of non-ester … 0.5 hr” value in data set [1] (sc, 0.5 h) was 29000 ng/mL. For the same compound, the “Plasma level of non-ester … 1.0 hr” value in data set [1] (sc, 1 h) amounted to 13200 ng/mL. Moreover, in data set [1] (sc, 120 min), the Bioavailability is given as 100%. In addition, the “Plasma level of non-ester … 2.0 hr” value in data set [1] (sc, 2 h) amounted to 1500 ng/mL.
